Like-named read-outs stand apart in the source and are kept apart here.
Experiments:
Neurokinin NK1 = test system: T1, Neurokinin NK1; assay: Cerep binding; parameters: species or system human; settings: 10 μM; [125I]BH-SP; hum., U-373MG cells
T1 construct: purchased Eurofins Cerep

GABA (non-selective) = assay: Cerep binding; settings: 10 μM; [3H]GABA; rat cerebral cortex
GABAA-α5 receptors = biological target: T2, GABAA-α5 receptors (Rattus norvegicus, UniProt P18508+P19969); assay: In vivo [3H]-Ro 15-4513 binding with ex vivo autoradiography (receptor occupancy); settings: hippocampus, Hill fit
T2 construct: from tissue; host or cells: rat brain (hippocampus), in vivo with ex vivo autoradiography
T2 sequence (P19969 32-464 limits assumed): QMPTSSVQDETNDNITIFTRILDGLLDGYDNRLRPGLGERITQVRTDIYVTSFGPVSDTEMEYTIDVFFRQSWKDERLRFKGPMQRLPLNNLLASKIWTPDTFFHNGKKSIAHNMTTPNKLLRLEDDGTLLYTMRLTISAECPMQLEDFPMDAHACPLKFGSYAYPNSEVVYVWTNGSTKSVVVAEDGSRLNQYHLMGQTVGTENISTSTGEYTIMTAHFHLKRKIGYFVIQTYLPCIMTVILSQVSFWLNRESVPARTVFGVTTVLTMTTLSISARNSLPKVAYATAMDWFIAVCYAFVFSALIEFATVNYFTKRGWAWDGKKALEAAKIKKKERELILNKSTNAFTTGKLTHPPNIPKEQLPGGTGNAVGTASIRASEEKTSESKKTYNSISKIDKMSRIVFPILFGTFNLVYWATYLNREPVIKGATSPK
T2 sequence (P18508 39-466): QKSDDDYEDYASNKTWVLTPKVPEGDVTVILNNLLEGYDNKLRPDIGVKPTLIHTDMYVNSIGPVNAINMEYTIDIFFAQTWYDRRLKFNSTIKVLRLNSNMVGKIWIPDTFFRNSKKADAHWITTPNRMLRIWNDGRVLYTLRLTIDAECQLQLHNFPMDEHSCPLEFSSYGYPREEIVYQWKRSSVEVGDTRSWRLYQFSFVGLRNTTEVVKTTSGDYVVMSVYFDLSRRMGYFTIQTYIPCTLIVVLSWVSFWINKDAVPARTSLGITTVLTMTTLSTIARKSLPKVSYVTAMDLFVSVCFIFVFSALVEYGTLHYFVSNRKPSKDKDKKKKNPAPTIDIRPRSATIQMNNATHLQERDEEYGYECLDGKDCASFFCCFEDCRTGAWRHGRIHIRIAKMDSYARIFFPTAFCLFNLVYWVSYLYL
T2 sequence (P63079 26-473 partner): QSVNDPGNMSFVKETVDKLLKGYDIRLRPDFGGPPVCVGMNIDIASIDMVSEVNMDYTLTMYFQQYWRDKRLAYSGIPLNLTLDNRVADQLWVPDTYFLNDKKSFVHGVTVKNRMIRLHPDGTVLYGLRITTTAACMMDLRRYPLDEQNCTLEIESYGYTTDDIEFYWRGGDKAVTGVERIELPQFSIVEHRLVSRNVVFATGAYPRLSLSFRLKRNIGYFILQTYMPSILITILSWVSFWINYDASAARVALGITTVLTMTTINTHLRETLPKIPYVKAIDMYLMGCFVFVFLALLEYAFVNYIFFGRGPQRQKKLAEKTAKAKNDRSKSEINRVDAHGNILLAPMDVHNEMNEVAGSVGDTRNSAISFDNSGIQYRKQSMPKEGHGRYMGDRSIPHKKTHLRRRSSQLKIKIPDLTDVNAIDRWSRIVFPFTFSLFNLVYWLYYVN
Description: Brains and blood were collected from each animal. Brains were divided in two halves along their sagittal axis and frozen in dry ice. […] Half of the brain was used for autoradiography, as described earlier. […] The percentage of receptor occupancy (y) was calculated from: y=1001-Sbasmisanil/Svehicle.
The curve was fitted to the experimental results using the Hill equation (Eq. (1) with Hill coefficient D = 1).

Serotonin 5-HT2A = test system: T3, Serotonin 5-HT2A; assay: Cerep binding; parameters: species or system human; settings: 10 μM; [3H]ketanserin; hum. recomb. (HEK-293)
T3 construct: purchased Eurofins Cerep

[1] = test system: T4, Calcitonin gene related peptide (CGRP); assay: Cerep binding; parameters: species or system human; settings: 10 μM; [125I]hCGRPα; hum. recomb. (CHO)
T4 construct: purchased Eurofins Cerep

dogs = assay: GLP toxicology and safety pharmacology, daily oral administration; assay type: in vivo, dog
Muscarinic M3 = test system: T5, Muscarinic M3; assay: Cerep binding; parameters: species or system human; settings: 10 μM; [3H]4-DAMP; hum. recomb. (CHO)
T5 construct: host or cells: CHO

[2] = test system: Somatostatin (non-selective); assay: Cerep binding; settings: 10 μM; [125I]Tyr11-somatostatin-14; mouse, AtT-20 cells
Serotonin 5-HT3 = test system: T6, Serotonin 5-HT3; assay: Cerep binding; parameters: species or system human; settings: 10 μM; [3H]BRL 43694; hum. recomb. (CHO)
T6 construct: purchased Eurofins Cerep

Cannabinoid CB1 = test system: T7, Cannabinoid CB1; assay: Cerep binding; parameters: species or system human; settings: 10 μM; [3H]CP 55940; hum. recomb. (CHO)
T7 construct: host or cells: CHO

[3] = test system: GABAA Cl- channel (non- selective); assay: Cerep binding; settings: 10 μM; [35S]TBPS; rat cerebral cortex
healthy male subjects = assay: Study WP25366 multiple-ascending dose, safety EEG and plasma exposure; assay type: in vivo, human
Description: 2) Study WP25366 Multiple-Ascending Dose (MAD) in Healthy Volunteers
Of the 32 healthy male subjects who were randomized to treatment, 24 subjects were […]
participants had several EEGs and several participants had sleep assessments with EEG that were also evaluated:
• Cohort 1: 80 mg (n dosed: 6)
• Cohort 2: 160 mg (n dosed: 6)
• Cohort 3: 370 mg (n dosed: 6)
• Cohort 4: 1000 mg (n dosed: 6)
EEG monitoring was implemented in this study starting at about 1 hour prior to dosing and then up to approximately 7 hours after dosing, on selected days during the dosing period. All sleep recordings were performed for approximately 8 h from 23.00 to 07.00. The objective of such monitoring was detection if any, of specific EEG patterns such as spikes, sharp waves, and spike-and-wave discharges that would be indicative of epileptiform changes or non - […]
The day and night EEG recordings were subject to expert safety review, with the objective of identifying any pro-convulsive signals. Following this safety review, EEG results were recorded either as normal, normal variant or abnormal variant. […]
of epileptogenic effects (e.g., generalized spike-wave discharges) in any subject in any dose group at any time points during the study. The review of the day and night EEG recordings […]
160 mg BID, 370 mg BID and 1000 mg BID, was safe and ha d no impact on brain electrical activity. Maximum plasma concentrations at Day 13 were 2120, 4110, 6040, and […]
3) Study WP29402 Drug-Drug Interaction (DDI) Itraconazole in Healthy Volunteers This was an open-label, three treatment, fixed sequence crossover study to investigate the […]
healthy male and female volunteers (age range 18-60 years; n: 12). As systemic basmisanil exposure was predicted to be higher than exposures achiev ed in previous clinical studies, regular EEG examinations were included and reviewed by a neurologist. Multiple oral doses […]
with the CYP3A inhibitor, itraconazole (200 m g OD).
Baseline EEG assessments were performed prior to the study (resting EEG eyes open/closed, intermittent photic stimulation, hyperventilation). On treatment days (1, 3, 5, 8) […]
hours and resting EEG eyes open/closed w ere performed. […]
administered with itraconazole.

Serotonin 5-HT1A = test system: T8, Serotonin 5-HT1A; assay: Cerep binding; parameters: species or system human; settings: 10 μM; [3H]8-OH-DPAT; hum. recomb. (HEK-293)
T8 construct: purchased Eurofins Cerep

Adenosine A1 = test system: T9, Adenosine A1; assay: Cerep binding; parameters: species or system human; settings: 10 μM; [3H]DPCPX; hum. recomb. (CHO)
T9 construct: host or cells: CHO

male Sprague-Dawley rats = assay: Prepulse inhibition; assay type: in vivo, rat; settings: 1, 3 and 10 mg/kg p.o., 30 min prior to testing
Description: intensities (72, 76, 80, 84 dB) at total plasma concentrations of 56 ± 20, 169 ± 20, and […]
Compound administered at 1, 3 and 10 mg/kg p.o. to male Sprague-Dawley rats 30 min prior to testing. Bars indicate mean percent prepulse inhibition (% PPI) ± SEM; 10 animals per dose group. Background noise: 68 dB. Startle pulse: 12 0 dB. For full methods refer to:
Nordquist et al. (2008). Effects of aripiprazole/OPC-14597 on motor activity, pharmacological models of psychosis, and brain activity in rats. Neuropharmacology , 54,405-416.
Animals were euthanized at the end of testing and plasma samples were collected approximately 60 min post administration; n = 4 rats per group.
(1 picture or pasted object on this page, not shown here)

[4] = Plasma exposure in EEG study; assay type: in vivo; settings: human, oral, 240 mg twice daily, mean ± SD
Dopamine D4.4 = test system: T10, Dopamine D4.4; assay: Cerep binding; parameters: species or system human; settings: 10 μM; [3H]spiperone; hum. recomb. (CHO)
T10 construct: host or cells: CHO

[5] = test system: Platelet derived growth factor (PDGF); assay: Cerep binding; settings: 10 μM; [125I]PDGF BB; mouse, Balb/c 3T3 cells

Cc1onc(-c2ccc(F)cc2)c1COc1ccc(C(=O)N2CCS(=O)(=O)CC2)cn1 [basmisanil]
% Inhibition (Neurokinin NK1): 37%
% Inhibition (GABA (non-selective)): -1%
EC50 (GABAA-α5 receptors; free plasma, read-out: free plasma concentration for half-maximal receptor occupancy (EC50)): 171 ± 16 nM
EC50 (GABAA-α5 receptors; total plasma, read-out: plasma level for half-maximal receptor occupancy (EC50) (converted)): 1220 nM
% Inhibition (Serotonin 5-HT2A): -9%
% Inhibition [1]: -6%
exposures with lack of clinical signs and convulsion symptoms (dogs; GLP toxicology studies in dogs): up to 4590 ng/mL
convulsions and EEG alterations (dogs; daily oral, supra-therapeutic plasma exposures, up to 39 weeks): no convulsions and no EEG alterations
% Inhibition (Muscarinic M3): 4%
% Inhibition [2]: 18%
% Inhibition (Serotonin 5-HT3): 8%
% Inhibition (Cannabinoid CB1): 16%
% Inhibition [3]: -6%
Maximum plasma concentration at Day 13 (healthy male subjects; 80 mg BID): 2120 ng/mL
Maximum plasma concentration at Day 13 (healthy male subjects; 160 mg BID): 4110 ng/mL
Maximum plasma concentration at Day 13 (healthy male subjects; 370 mg BID): 6040 ng/mL
Maximum plasma concentration at Day 13 (healthy male subjects; 1000 mg BID): 8520 ng/mL
EEG assessments (healthy male subjects; 80, 160, 370 and 1000 mg BID): revealed no findings of clinical concern
% Inhibition (Serotonin 5-HT1A): 0%
% Inhibition (Adenosine A1): 28%
prepulse inhibition induced by prepulse intensities 72, 76, 80, 84 dB (male Sprague-Dawley rats): does not impair prepulse inhibition
concentration at 1 h ([4]; day 14, 1 h post morning dose): 3280 ± 888 ng/mL
concentration at 4 h ([4]; day 14, 4 h post morning dose): 4030 ± 842 ng/mL
% Inhibition (Dopamine D4.4): 9%
% Inhibition [5]: -17%
